One test addresses T1, P2X3 (UniProt P56373).
T1 sequence (P56373 1-397): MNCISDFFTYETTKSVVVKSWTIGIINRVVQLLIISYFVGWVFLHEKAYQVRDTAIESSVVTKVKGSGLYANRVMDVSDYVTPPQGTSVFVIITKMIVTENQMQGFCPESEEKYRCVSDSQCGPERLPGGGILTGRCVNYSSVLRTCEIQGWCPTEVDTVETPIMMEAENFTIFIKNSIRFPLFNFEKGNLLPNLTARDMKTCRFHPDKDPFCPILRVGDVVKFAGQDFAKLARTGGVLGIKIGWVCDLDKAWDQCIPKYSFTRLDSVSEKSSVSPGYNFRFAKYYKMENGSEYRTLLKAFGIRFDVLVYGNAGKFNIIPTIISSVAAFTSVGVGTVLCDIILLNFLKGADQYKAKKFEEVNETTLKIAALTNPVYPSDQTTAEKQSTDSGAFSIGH
Nature of the test: P2X3 FLIPR intracellular calcium assay. The test is classed as cell-based. The conditions noted are these: agonist at EC75, species (human or rat) not given. The text has this:
The FLIPR® assay utilizes cells which express human or rat P2X3 or P2X2/3 receptors. […] The PCR product obtained containing the protein coding sequence of rat P2X2 was cloned into EcoRV-digested and dephosphorylated vector pIRES-puro3 within the multiple cloning site (MCS). See, FIG. 1A.
Rat P2X3 (NCBI Accession No: X91167) was amplified by PCR from rat brain cDNA. The PCR product obtained containing the protein coding sequence of rat P2X3 was cloned into EcoRV-digested and dephosphorylated vector pCDNA-Hygro within the multiple cloning site (MCS) (FIG. 1B). Rat P2X3 cloned into pcDNA-Hygro was then subcloned into pcDNA-5/TO at HindIII (5′) and XhoI (3′) sites within the multiple cloning site (MCS) of the vector (FIG. 1C).
(§1) Transfection was carried out using super-coiled constructs (purified using QIAGEN kit) in antibiotic free, serum free DMEM using Lipofectamine® 2000 (Invitrogen) transfection agent. The DNA constructs rat P2X2 in pIRES-Puro3 and rat P2X3 in pCDNA5/TO were co-transfected into TRex293 cells in order to generate the rP2X2/3 stable line. 50 μg/mL hygromycin (Invitrogen) and 0.5 μg/mL puromycin (Fermentek) were used for selection of stable clones of rP2X2/3. Rat P2X3 in pCDNA5/TO DNA construct was transfected to CHO-TRex cells to generate the rP2×3 stable line and 500 μg/mL hygromycin (Invitrogen) was used as selection antibiotic. Transfected stable colonies were then functionally verified and robust clones suitable for assay were clonally purified through dilutions.
(§2) Cryo-vial containing 6×10^6 cells (human P2X3-HEK/human P2X2/3-TRex293/rat P2X2/3-TRex293/rat P2X3 TRex-CHO) was thawed in a 37° C. water bath. Cells were suspended in 20 mL of respective cell plating media (See annexure for composition) in a 50 mL centrifuge tube. The cell viability was checked with the help of Trypan Blue dye. Upon washing, cells were plated in a black 384-well clear bottomed, sterile poly-D-lysine coated plate such that, each well contained 10,000 cells (15,000/well for hP2X3) in 30 μL cell plating media. The plate was incubated in a 5% CO2 incubator at 37° C. for 24 h.
(§3) The next day, prior to the assay, the cell plating media was removed from each well by decanting and gentle tapping. Thirty μL of FLIPR Calcium 4 dye solution was added to each well. The plate was incubated at 37° C. for 45 min (60 min for hP2X3). The plate was next equilibrated at room temperature for 15 minutes before placing it in a 384 well FLIPR for the assay.
Dilutions were mixed with assay buffer just before performing the assay.
(§4) Compounds were added to the respective wells of the assay-ready cell plate with the help of the FLIPR and fluorescence readings were captured for 5 min to observe any possible agonistic property of the compounds. The plate was then incubated at room temperature for 15 min. The cells were stimulated with respective agonist EC75 concentration and the fluorescence readings were captured for another 5 min by FLIPR. The difference in fluorescence readings in presence of the compounds were compared with that of the control wells (wells having no compound) to calculate the inhibitory potency of the compounds. The IC50 values of the compounds were determined using the Graph pad Prism software.
(vi) Dye Solution Composition • 1×FLIPR Calcium 4 dye in assay buffer (Molecular devices Cat# R8141) • 1.8 mM Probenecid (Sigma Cat# P8761) • pH adjusted to 7.4

The next test has as its target T2, P2X2/3 (Homo sapiens, UniProt P56373+Q9UBL9).
T2 sequence (Q9UBL9 1-471): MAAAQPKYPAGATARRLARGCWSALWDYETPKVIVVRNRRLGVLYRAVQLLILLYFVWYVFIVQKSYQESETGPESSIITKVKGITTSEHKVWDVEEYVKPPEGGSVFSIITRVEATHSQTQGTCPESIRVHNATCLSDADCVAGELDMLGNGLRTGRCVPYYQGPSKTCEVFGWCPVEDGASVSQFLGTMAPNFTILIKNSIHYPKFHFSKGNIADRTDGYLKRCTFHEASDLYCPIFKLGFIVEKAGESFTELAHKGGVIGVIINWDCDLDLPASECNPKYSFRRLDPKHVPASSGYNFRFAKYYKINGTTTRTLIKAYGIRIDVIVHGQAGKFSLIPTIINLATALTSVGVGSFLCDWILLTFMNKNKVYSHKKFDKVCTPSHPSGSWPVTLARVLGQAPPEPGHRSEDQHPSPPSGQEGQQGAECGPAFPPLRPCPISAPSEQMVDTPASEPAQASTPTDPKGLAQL
T2 sequence (P56373 1-397): T1 sequence (P56373 1-397)
The experiment in a line: P2X2/3 FLIPR intracellular calcium assay. The class given is cell-based. The conditions noted are these: agonist at EC75, species (human or rat) not given.
Description: The FLIPR® assay utilizes cells which express human or rat P2X3 or P2X2/3 receptors. Recombinant cells expressing hP2X3 (Cat#6188) and hP2X2/3 (Cat#6179) were procured from Chantest Corp. Rat P2X2 (NCBI Accession No: U14414) was amplified by PCR from PC12 cDNA (a rat adrenal medulla cell line). The PCR product obtained containing the protein coding sequence of rat P2X2 was cloned into EcoRV-digested and dephosphorylated vector pIRES-puro3 within the multiple cloning site (MCS). See, FIG. 1A.
as §1, §2, §3
Compounds were dissolved in DMSO and serially diluted following 11 point half log (3.16 fold) dilution with a starting concentration of 2 mM. Dilutions were mixed with assay buffer just before performing the assay.
as §4
(ii) Cell Plating Media for hP2X3-HEK and hP2X2/3-TRex293 Cells • DMEM/F12 (1:1) HAM media (Invitrogen; Cat#11039) • 1×NEAA (Invitrogen; Cat#11140) • 25 mM HEPES (Invitrogen; Cat#15630) • 1 mM sodium pyruvate (Invitrogen; Cat#11360) • 10% tetracycline negative FBS (PAA; Cat# A15-209) • 1 μg/mL doxycycline (Clontech; Cat#63131) [for hP2X2/3-TRex293 cells only]
(iii) Cell Plating Media for rP2X2/3-TRex293 Cells • DMEM media (Invitrogen; Cat#11965) • 25 mM HEPES (Invitrogen; Cat#15630) • 10% tetracycline negative FBS (PAA; Cat# A15-209) • 1 μg/mL Doxycycline (Clontech; Cat#63131)
(v) Assay Buffer Composition • HBSS (Invitrogen Cat#14025) • 20 mM HEPES (Invitrogen Cat#15630) • 0.01% F127 (Sigma Cat# P2443) • 1.8 mM CaCl2 (Sigma Cat# C5080) • pH adjusted to 7.4 […]

`Cc1ccc(CNC(=O)c2cc(-n3nncc3C(F)F)c3ncc(-c4ncc(C)s4)n3c2)cn1` [Example 36]: the IC50 on P2X3 and on P2X2/3 was 1 to 100 nM in each case.

For the compound `Cc1ccc(-c2cnc3c(-n4nncc4C(C)C)cc(C(=O)N[C@@H](C)c4nnc[nH]4)cn23)s1` [Example 37], the IC50 at P2X3 and at P2X2/3 was 1 to 100 nM throughout.

For the compound `Cc1ncc(CNC(=O)c2cc(-n3nncc3C(F)(F)F)c3ncc(-c4ccc(C)s4)n3c2)cn1` [Example 39], the IC50 on P2X3 and on P2X2/3 was 1 to 100 nM each time.

For the compound `Cc1ncc(CNC(=O)c2cc(-n3nncc3C(C)C)c3ncc(-c4ccc(C)s4)n3c2)cn1` [Example 40], the IC50 (as a rule, the midpoint of a concentration-inhibition curve) at P2X3 is over 10000 nM; on P2X2/3, 1 to 100 nM.

On to `Cc1ncc(CNC(=O)c2cc(-n3nncc3C3CC3)c3ncc(-c4ccc(C)s4)n3c2)cn1` [Example 41], for which the IC50 at P2X3 and at P2X2/3 was 1 to 100 nM in each case.

For `COc1ncc(CNC(=O)c2cc(-n3nncc3C3CC3)c3ncc(-c4ccc(C)s4)n3c2)cn1` [Example 42], the IC50 at P2X3 and on P2X2/3 was 1 to 100 nM in each case.

As for `Cc1ccc(-c2cnc3c(-n4nncc4C4CCC4)cc(C(=O)N[C@@H](C)c4nnc[nH]4)cn23)s1` [Example 43], the IC50 on P2X3 and on P2X2/3 was 1 to 100 nM throughout.

For the compound `COc1ncc(CNC(=O)c2cc(-n3nncc3C(F)(F)F)c3ncc(-c4ccc(C)s4)n3c2)cn1` [Example 44], the IC50 at P2X3 and on P2X2/3 was 1 to 100 nM each time.

With `Cc1ccc(CNC(=O)c2cc(-n3nncc3C(C)C)c3ncc(-c4ccc(C)s4)n3c2)cn1` [Example 45], the results for the IC50 at P2X3 and at P2X2/3 were over 10000 nM and 1 to 100 nM, respectively.

In the case of `Cc1ccc(-c2cnc3c(-n4nncc4C(C)(C)C)cc(C(=O)N[C@@H](C)c4nnc[nH]4)cn23)s1` [Example 46], the IC50 at P2X3 and at P2X2/3 was 1 to 100 nM in each case.

Regarding `Cc1ncc(CNC(=O)c2cc(-n3nncc3C(F)F)c3ncc(-c4ncc(C)s4)n3c2)cn1` [Example 47], the IC50 at P2X3 and on P2X2/3 was 1 to 100 nM each time.

For `Cc1ccc(CNC(=O)c2cc(-n3nncc3C(F)F)c3ncc(-c4ccc(C)o4)n3c2)cn1` [Example 48], the IC50 on P2X3 and at P2X2/3 was 1 to 100 nM throughout.

For `Cc1ncc(CNC(=O)c2cc(-n3nncc3C3CCC3)c3ncc(-c4ccc(C)s4)n3c2)cn1` [Example 49], the half-maximal inhibitory concentration (IC50) was over 10000 nM at P2X3 and 1 to 100 nM on P2X2/3.

Regarding `C[C@H](NC(=O)c1cc(-n2nncc2C(F)F)c2ncc(-c3ccc(C#N)s3)n2c1)c1nnc[nH]1` [Example 51], the IC50 was 100 to 1000 nM at P2X3 and 1000 to 10000 nM at P2X2/3.

For `Cc1cnc(-c2cnc3c(-n4nncc4C(F)F)cc(C(=O)N[C@@H](C)c4nnc[nH]4)cn23)s1` [Example 53], the IC50 on P2X3 and at P2X2/3 was 1 to 100 nM in each case.

For `Cc1ccc(-c2cnc3c(-n4nncc4C(F)F)cc(C(=O)N[C@H](c4nnc[nH]4)C(C)C)cn23)s1` [Example 54], the IC50 at P2X3 and on P2X2/3 was 1 to 100 nM in each case.

As to `Cc1ncc(CNC(=O)c2cc(-n3nncc3C3CCC3)c3ncc(-c4ncc(C)s4)n3c2)cn1` [Example 55], the concentration for half-maximal inhibition (IC50) was over 10000 nM at P2X3 and 100 to 1000 nM at P2X2/3.

Consider `Cc1ccc(CNC(=O)c2cc(-n3nncc3C(F)(F)F)c3ncc(-c4ncc(C)s4)n3c2)cn1` [Example 56], for which the figures for the IC50 at P2X3 and on P2X2/3 were 1 to 100 nM and 100 to 1000 nM, respectively.

For the compound `Cc1cnc(-c2cnc3c(-n4nncc4C(C)(C)C)cc(C(=O)N[C@@H](C)c4nnc[nH]4)cn23)s1` [Example 57], the IC50 at P2X3 was 1 to 100 nM; at P2X2/3, 100 to 1000 nM.

Turning to `CCc1cnnn1-c1cc(C(=O)N[C@@H](CC)c2nnc[nH]2)cn2c(-c3ccc(C)s3)cnc12` [Example 58], the IC50 on P2X3 and at P2X2/3 was 1 to 100 nM each time.

For `C[C@H](NC(=O)c1cc(-n2nncc2C(F)F)c2ncc(-c3ccc(C(F)(F)F)s3)n2c1)c1nnc[nH]1` [Example 59], the figures for the IC50 at P2X3 and on P2X2/3 were 100 to 1000 nM and 1000 to 10000 nM, respectively.

On to `Cc1ccc(-c2cnc3c(-n4nncc4C(F)F)cc(C(=O)N[C@@H](C)c4nnc[nH]4)cn23)o1` [Example 60], for which the IC50 at P2X3 and at P2X2/3 was 1 to 100 nM each time.

Consider `CC[C@H](NC(=O)c1cc(-n2nncc2C(C)C)c2ncc(-c3ccc(C)s3)n2c1)c1nnc[nH]1` [Example 61], for which the IC50 on P2X3 and at P2X2/3 was 1 to 100 nM each time.

Turning to `CCc1cnnn1-c1cc(C(=O)N[C@@H](C)c2nnc[nH]2)cn2c(-c3ccc(C)o3)cnc12` [Example 62], the IC50 was 1 to 100 nM on P2X3 and 100 to 1000 nM at P2X2/3.

As for `CCCc1cnnn1-c1cc(C(=O)N[C@@H](C)c2nnc[nH]2)cn2c(-c3ccc(C)s3)cnc12` [Example 63], the half-maximal inhibitory concentration (IC50) on P2X3 and at P2X2/3 was 1 to 100 nM each time.

Turning to `CCCc1cnnn1-c1cc(C(=O)NCc2cnc(C)nc2)cn2c(-c3ncc(C)s3)cnc12` [Example 64], the IC50 on P2X3 was in the range of 1 to 100 nM; on P2X2/3, 100 to 1000 nM.

As to `Cc1ncc(CNC(=O)c2cc(-n3nncc3C(F)F)c3ncc(-c4ccc(C)o4)n3c2)cn1` [Example 65], the IC50 on P2X3 and on P2X2/3 was 1 to 100 nM throughout.

The values above are taken from US10316039B2, “P2X3 and/or P2X2/3 compounds and methods” (Asana Biosciences, LLC, priority 2013, dated 2019).
